Where a name gives a salt, the structure may show the parent alone.
The molecules below were run against T1, mSUCNR1 (Mus musculus, UniProt Q99MT6) (assay: cAMP assay, agonist potency at mSUCNR1). Settings: Flp-In T-REx 293 cells; mean ± SEM, minimum three independent experiments.
T1 sequence (Q99MT6 1-317): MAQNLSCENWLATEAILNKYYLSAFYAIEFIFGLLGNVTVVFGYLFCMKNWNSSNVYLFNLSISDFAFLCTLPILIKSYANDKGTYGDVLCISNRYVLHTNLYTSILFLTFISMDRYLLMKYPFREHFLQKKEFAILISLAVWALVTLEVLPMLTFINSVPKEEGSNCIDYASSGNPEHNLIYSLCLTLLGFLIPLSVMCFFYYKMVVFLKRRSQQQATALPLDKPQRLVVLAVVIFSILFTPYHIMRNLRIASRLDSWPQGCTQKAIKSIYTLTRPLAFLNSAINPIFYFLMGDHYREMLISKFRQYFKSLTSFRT
Type: cell-based
Set-up: expressed in transfected cells; host or cells: Flp-In T-REx 293

Row | SMILES | cAMP mSUCNR1 pEC50
1 | CN(C)CCCCCCOc1ccc(-c2ccc(C(=O)N[C@@H](CC(=O)O)C(=O)O)o2)cc1 [Compound 21, (S)-6-(4-(5-((1,2-Dicarboxyethyl)carbamoyl)furan-2-yl)phenoxy)-N,N-dimethylhexan-1-aminium 2,2,2-trifluoroacetate] | 7.20 ± 0.02
2 | CC(C)(C)OC(=O)NCCCCOc1ccc(-c2ccc(C(=O)N[C@@H](CC(=O)O)C(=O)O)o2)cc1 [Compound 8b, (5-(4-(4-((tert-Butoxycarbonyl)amino)butoxy)phenyl)furan-2-carbonyl)-L-aspartic acid] | 6.47 ± 0.18
3 | NCCCOc1ccc(-c2ccc(C(=O)N[C@@H](CC(=O)O)C(=O)O)o2)cc1 [Compound 9a, (S)-3-(4-(5-((1,2-Dicarboxyethyl)carbamoyl)furan-2-yl)phenoxy)propan-1-aminium 2,2,2-trifluoroacetate] | 7.10 ± 0.11
4 | CC(C)(C)OC(=O)NCCOCCOc1ccc(-c2cccc(C(=O)N[C@@H](CC(=O)O)C(=O)O)n2)cc1 [Compound 15e, (6-(4-(2-(2-((tert-Butoxycarbonyl)amino)ethoxy)ethoxy)phenyl)picolinoyl)-L-aspartic acid] | 6.01 ± 0.18
5 | CC(C)(C)OC(=O)NCCCOc1ccc(-c2ccc(C(=O)N[C@@H](CC(=O)O)C(=O)O)o2)cc1 [Compound 8a, (5-(4-(3-((tert-Butoxycarbonyl)amino)propoxy)phenyl)furan-2-carbonyl)-L-aspartic acid] | 6.25 ± 0.09
6 | CC(C)(C)OC(=O)NCCCCCCOc1ccc(-c2ccc(C(=O)N[C@@H](CC(=O)O)C(=O)O)o2)cc1 [Compound 8d, (5-(4-((6-((tert-Butoxycarbonyl)amino)hexyl)oxy)phenyl)furan-2-carbonyl)-L-aspartic acid] | 6.42 ± 0.11
7 | CC(C)(C)OC(=O)NCCCCCOc1ccc(-c2cccc(C(=O)N[C@@H](CC(=O)O)C(=O)O)n2)cc1 [Compound 15c, (6-(4-((5-((tert-Butoxycarbonyl)amino)pentyl)oxy)phenyl)picolinoyl)-L-aspartic acid] | 5.68 ± 0.11
8 | CC(C)(C)OC(=O)NCCCCOc1ccc(-c2cccc(C(=O)N[C@@H](CC(=O)O)C(=O)O)n2)cc1 [Compound 15b, (6-(4-(4-((tert-Butoxycarbonyl)amino)butoxy)phenyl)picolinoyl)-L-aspartic acid] | 5.97 ± 0.09
9 | CC(C)(C)OC(=O)NCCCOc1ccc(-c2cccc(C(=O)N[C@@H](CC(=O)O)C(=O)O)n2)cc1 [Compound 15a, (6-(4-(3-((tert-Butoxycarbonyl)amino)propoxy)phenyl)picolinoyl)-L-aspartic acid] | 5.90 ± 0.08
10 | CC(C)(C)OC(=O)NCCCCCOc1ccc(-c2ccc(C(=O)N[C@@H](CC(=O)O)C(=O)O)o2)cc1 [Compound 8c, (5-(4-((5-((tert-Butoxycarbonyl)amino)pentyl)oxy)phenyl)furan-2-carbonyl)-L-aspartic acid] | 6.60 ± 0.16
11 | NCCCCOc1ccc(-c2ccc(C(=O)N[C@@H](CC(=O)O)C(=O)O)o2)cc1 [Compound 9b, (5-(4-(4-Aminobutoxy)phenyl)furan-2-carbonyl)-L-aspartic acid hydrochloride] | 7.13 ± 0.06
12 | CNCCCCCCOc1ccc(-c2ccc(C(=O)N[C@@H](CC(=O)O)C(=O)O)o2)cc1 [Compound 20, (S)-6-(4-(5-((1,2-Dicarboxyethyl)carbamoyl)furan-2-yl)phenoxy)-N-methylhexan-1-aminium 2,2,2-trifluoroacetate] | 7.35 ± 0.05
13 | CC(C)(C)OC(=O)NCCNCCCCCCOc1ccc(-c2ccc(C(=O)N[C@@H](CC(=O)O)C(=O)O)o2)cc1 [Compound 17, (S)-N-(2-((tert-Butoxycarbonyl)amino)ethyl)-6-(4-(5-((1,2-dicarboxyethyl)carbamoyl)furan-2-yl)phenoxy)hexan-1-aminium 2,2,2-trifluoroacetate] | 7.40 ± 0.11

Same assay, conditions: relative to agonist scaffold 2

Row | SMILES | fold decrease in potency on mSUCNR1 [fold]
14 | CC(C)(C)OC(=O)NCCCCCOc1ccc(-c2ccc(C(=O)N[C@@H](CC(=O)O)C(=O)O)o2)cc1 [Compound 8c, (5-(4-((5-((tert-Butoxycarbonyl)amino)pentyl)oxy)phenyl)furan-2-carbonyl)-L-aspartic acid] | 2.5
